In patent US5883074A, “Potentiators of antibacterial agents” (priority 1995, dated 1999):
Where two headings read alike, the source gives them in different places.

Assays:
[1] = tested on: Enterococcus faecalis VanB; test: Checkerboard assay / dose range study with vancomycin; format: cell-based; details: for vancomycin MIC reduction in checkerboard assay: compound 0-20 μg/ml, VanB; for synergy with vancomycin: dose range study, VanB phenotype
Source text: (§1) FIG. 9a provides the results of checkerboard assays showing the MIC reduction for vancomycin in the presence of a range of concentrations of brazilin against two Enterococcus faecalis strains, one VanA and the other VanB. […] Similarly, FIG. 9b provides the results of checkerboard assays showing the MIC reduction for vancomycin in the presence of a range of concentrations of 6-ethyl-7-[1-oxo-3-(1-pyrrolidino)]propyl-1,2,3,4-tetrahydro-1,1,4,4-tetramethylnaphthalene (EOPPTTN).
(§2) Two of the three compounds (brazilin and 6-ethyl-7-[oxo-3-(1-pyrrolidino)]propyl-1,2,3,4-tetrahydro-1,1,4,4-tetramethylnaphthalene) have been examined for synergy with vancomycin. […] Two examples of reasons for alterations are for further optimization, and for modification for use with other bacterial strains or species.

[2] = tested on: Enterococcus faecalis VanA; test: as above; format: cell-based; details: for vancomycin MIC reduction in checkerboard assay: compound 0-20 μg/ml, VanA; for synergy with vancomycin: dose range study, VanA phenotype
Source text: as §1, §2

E. faecalis VanA strain [3] = test: Vancomycin potentiation screens VPS-20 and VPS-D-ala; format: cell-based, Enterococcus faecalis; details: 10 ug/ml test compound; for intrinsic activity against the control cells: no vancomycin; for vancomycin potentiation screen result: VPS-20 and/or VPS-D-ala
Procedure: (§3) In the VPS-20 protocol, vancomycin is used at 20 ug/ml, test compounds are used at 10 ug/ml (this is not critical, a range could be used as well). The growth medium is Brain Heart Infusion broth however, any of a variety of media which will support growth of the specific bacterial strain can be used. The VPS-D-Ala screen uses 8 ug/ml of vancomycin and 50 mM D-alanine. This amino acid is added to feed the bacteria excess alanine, which allows the bacteria to incorporate the alanine in some cases instead of incorporating the (resistance causing) D-lactate in the pentapeptide termini of the cell wall precursor. The presence of this D-alanine supplement thus makes the assay less stringent.
(§4) Inoculate E. faecalis VanA strain in BHI broth (pick a few colonies into 3 ml BHI with 2.56 ug/ml vancomycin and grow O/N at 35° C. in a shaker rotating at 225 rpm.
(§5) Dilute the O/N culture 1:50 in BHI with 2.56 ug/ml vancomycin (0.5 ml±24.5 ml BHI) in a 125-ml flask, put back in the 35° C. shaker until the cells grow to early log phase (OD600 about 0.2, takes approximately 2 hrs). Make a 1:800 dilution of the log phase culture with BHI broth. 50 ul of these diluted cells will be used as the inoculum in the assay as described below. Add the inoculum after the other reagents.
(§6) Meanwhile, test the inoculum concentration and purity: Make 3 serial 10-fold dilutions of the inoculum in 0.2 ml BHI broth. Plate 100 ul on TSA agar plates (trypticase soy agar), incubate at 35° C. O/N, count the colonies to estimate the CFU/ml in the inoculum (it should be 10^4 -10^5 CFU/ml).
(§7) Make vancomycin stock at 50 mg/ml in ddH2 O. Filter sterilize with 0.2 um filter, and keep in the freezer. On the day of the assay, dilute vancomycin to 50 ug/ml (for VPS-20) or 54 ug/ml (for VPS-D-ala) in BHI broth.
Prepare D-alanine (Sigma) at 800 mM in ddH2O. Filter sterilize with 0.2 um filter.
(§8) The test compounds are from 0.1 mg/ml plates in 10% DMSO, 90% 50 mM HEPES, pH 7.3. Thaw at room temperature.
1. Take 40 ul 50 ug/ml vancomycin in BHI to each well of the assay plate (Final volume will be 100 ul, making vancomycin concentration 20 ug/ml)
2. For each assay plate, prepare a toxicity control plate; instead of pipetting 40 ul of the vancomycin, use 40 ul of BHI broth in each well of the assay plate.
3. Dilute 800 mM D-alanine to 200 mM in BHI broth, take 25 ul of the 200 mM D-alanine to both the assay plate and the toxic control plate.
4. Take 15 ul of 54 ug/ml vancomycin in BHI to each well of the assay plate (Final volume will be 100 ul, making vancomycin concentration 8 ug/ml)
5. For each assay plate, prepare a toxicity control plate; instead of pipetting 15 ul of the vancomycin, use 15 ul of BHI broth in each well of the assay plate.
6. Take 10 ul/well of the test compounds to the assay plates and the toxicity control plates. Do this in perfect register in the microtiter plates (change tips), and work using sterile technique (Final concentration will be 10 ug/ml test compounds, 1% DMSO). This must be done with separate tips, in perfect register.
7. Add 10 ul of 10% DMSO, 90% 50 mM HEPES, pH 7.3 in columns 1 and 12 in each plates.
8. Inoculate all wells in columns 2 to 11 with 50 ul 1/800 diluted log phase culture (prepared as indicated above). Use 50 ul sterile BHI instead of inoculum for the negative growth controls in well A-D in columns 1 and well E-H in columns 12. Add 50 ul of inoculum to Wells E-H in columns 1 and wells A-D in columns 12 for the positive growth controls.
(§9) 11. […] Remove mylar lids and check the cell density (A600) in 21-24 hours using a microtiter plate reader. The plates will need to be agitated carefully to resuspend the cells before reading.

E. faecalis VanA strain [4] = test: Vancomycin potentiation screen VPS-20; format: cell-based; details: Enterococcus faecalis, 10 ug/ml test compound
Procedure: as §3, §4, §5, §6, §7, §8
1. […]
as §9

MRSA Col cells = test: Time-kill curve with methicillin; format: cell-based, Staphylococcus aureus; details: methicillin only; at 24 hours
Procedure: FIG. 3a is a graph of the number of viable MRSA Col cells/ml versus growth time in hours as determined by the method of Example 4. The graph presents the time kill curve for the first potentiating compound from FIG. 1 at 10 μg/ml with methicillin at 20 μg/ml, and curves for controls (drug-free, methicillin only, and potentiator only). Viable cell counts for all controls were greater than 5×10^8 cells/ml at 24 hours, while the viable cell count for methicillin plus potentiator was approximately 5×10^3 cells/ml after 24 hours.
A standard time-kill method (see Eliopolous & Moellering, Ch. 13 in Antibiotics in Laboratory Medicine, 3rd ed., Lorian ed., at pp. 441-444) is used to characterize whether the potentiator-drug combination is bacteriostatic or bactericidal. As controls, normal growth of the pathogen (without drug or potentiator) and the effects of the drug alone and the potentiator alone are assessed using the same inoculum culture as is used in the combination time-kill test. Either bacteriostatic or bactericidal effect should be confirmed for the potentiators to progress to further testing.

MRSA = test: Potentiation screening assay: methicillin MIC reduction in MRSA; format: cell-based, Staphylococcus aureus; details: Staphylococcus aureus; MRSA, methicillin alone
Procedure: After regrowth at 35° C. to an OD600 of 0.2-0.4 (1-2 hrs.), the cells are diluted 1/1000 in MHB. […] The plate is placed in a humidified 35° C. incubator for 5-24 hours, and cell growth or inhibition is read as turbidity (OD600). Two positive and one negative controls for growth are cells grown MHB, cells grown in MHB plus 20 μg/ml methicillin alone (without test compound), and uninoculated MHB respectively.
Compounds which meet the first two criteria for follow-up are evaluated in a standard microdilution assessment of the MIC with methicillin for MRSA. (see Lorian, Antibiotics in Laboratory Medicine, 3rd ed., pp. 72-75 (1991).) In order to be carried further, the MIC of methicillin preferably is reduced in the presence of the potentiator to at most twice the MIC of a susceptible strain for methicillin.
MICs for the compounds were determined in the presence of 0, 5, and 10 μg/ml of each compound. MRSA cells were grown in the presence of 0, 5, and 10 μg/ml test compound and concentrations of methicillin obtained from serial two-fold dilutions starting at 1024 μg/ml to 0.002 μg/ml (This range can be extended or refined as appropriate.) as follows: A fresh inoculum of MRSA cells was grown at 35° C. in Mueller-Hinton Broth (MHB) overnight and then diluted 1/50 in the same medium. After regrowth at 35° C. to an OD600 of 0.2-0.4 (1-2 hrs.), the cells were diluted 1/1000 in MHB. […] The plate was placed in a humidified 35° C. incubator for 24 hours, and cell growth or inhibition was read as turbidity (OD600).

[5] = tested on: Enterococcus faecalis VanA; test: Vancomycin MIC of the test strain; checkerboard with D-alanine; format: cell-based
Procedure: In addition, in the bacterial strain used in the assays below, vancomycin induces the resistance mechanism. […] However, it is likely that the VPS-8 protocol (or one with a similar glycopeptide concentration)will be useful in conjunction with bacterial strains in which the glycopeptide resistance is not induced by a glycopeptide, such as strains in which the resistance is constitutively expressed.
9. […] 25 ul of the 800 mM D-alanine, 15 ul of 134 ug/ml vancomycin, 10 ul of 10% DMSO, 90% 50 mM HEPES, pH 7.3, 50 ul of BHI broth (negative control) or the inoculum (positive control).

[6] = no vancomycin, read-out: percent intrinsic inhibition in the VPS-20 control (without vancomycin)

Row | Structure (SMILES) | vancomycin MIC reduction in checkerboard assay [1] | synergy with vancomycin [1] | vancomycin MIC reduction in checkerboard assay [2] | synergy with vancomycin [2] | intrinsic activity against the control cells (E. faecalis VanA strain [3]) | vancomycin potentiation screen result (E. faecalis VanA strain [3]) | inhibition at 10 µg/mL (E. faecalis VanA strain [4]; 20 ug/ml vancomycin, read-out: percent growth inhibition in the VPS-20 assay (with vancomycin)) | inhibition at 10 µg/mL (E. faecalis VanA strain [4]; [6]) | viable cell count, methicillin only (control) (MRSA Col cells) | MIC (MRSA) | MIC of vancomycin in the presence of D-alanine ([5]; 200 mM D-alanine) | MIC ([5]; Enterococcus faecalis, read-out: MIC of vancomycin)
1 | CCc1cc2c(cc1C(=O)CCN1CCCC1)C(C)(C)CCC2(C)C [EOPPTTN, 6-ethyl-7-[1-oxo-3-(1-pyrrolidino)]propyl-1,2,3,4-tetrahydro-1,1,4,4-tetramethylnaphthalene] | the vancomycin MIC declined significantly | synergy | the vancomycin MIC declined significantly | synergy | some intrinsic activity against the control cells | positive, but less than N-benzyl thiosalicylamide |  |  |  |  |  | 
2 | O=C(NCc1ccccc1)c1ccccc1S [N-benzyl thiosalicylamide] |  |  |  |  | little intrinsic activity | very potent inhibitor in the assay | 88% | 4% |  |  |  | 
3 | Oc1ccc2c(c1)OC[C@]1(O)Cc3cc(O)c(O)cc3[C@H]21 [brazilin] | significant reduction in the vancomycin MIC | synergy | significant reduction in the vancomycin MIC | synergy | some intrinsic activity against the control cells | positive, but less than N-benzyl thiosalicylamide |  | 32% |  |  |  | 
4 | COc1cccc(OC)c1C(=O)N[C@@H]1C(=O)N2[C@@H]1SC(C)(C)[C@@H]2C(=O)O [methicillin, reference compound] |  |  |  |  |  |  |  |  | greater than 5×10^8 cells/ml | > 100 µg/mL |  | 
5 | CN[C@H](CC(C)C)C(=O)N[C@H]1C(=O)N[C@@H](CC(N)=O)C(=O)N[C@H]2C(=O)N[C@H]3C(=O)N[C@H](C(=O)N[C@H](C(=O)O)c4cc(O)cc(O)c4-c4cc3ccc4O)[C@H](O)c3ccc(c(Cl)c3)Oc3cc2cc(c3O[C@@H]2O[C@H](CO)[C@@H](O)[C@H](O)[C@H]2O[C@H]2C[C@](C)(N)[C@H](O)[C@H](C)O2)Oc2ccc(cc2Cl)[C@H]1O [vancomycin] |  |  |  |  |  |  |  |  |  |  | 16 µg/mL | 512 µg/mL
